Reference: patent publication US20170151268A1, “GLYCAN THERAPEUTICS AND RELATED METHODS THEREOF” (KALEIDO BIOSCIENCES, INC., priority 2015, published 2017)
≈ marks a conversion by molar mass, not a printed value.

Key:
[1] = 25° C., reported by Sigma-Aldrich; cited from earlier work
[2] = tested on: Clostridium difficile (strain VPI 10463 (ATCC-43255)); experiment: Mouse model of Clostridium difficile infection, disease-associated phenotypes; format: in vivo
Description: This experiment was conducted to analyze the effects of glycan therapeutics in a mouse model of Clostridium difficile infection (Chen et al, 2008, A Mouse Model of Clostridium difficile—Associated Disease. Gastroenterology 135(6), 1984-1992). In this model, normal mice were exposed to an antibiotic regimen that renders them susceptible to C. difficile infection and disease symptoms, similar with respect to their development and manifestation of human clinical disease. In humans, the disease is most often the result of exposure to broad spectrum antibiotics which is thought to result in intestinal dysbiosis and subsequent increased colonic colonization with C. difficile. The increased bio-burden of C. difficile leads to toxin production by the bacterium and colonic inflammation. Clinical manifestations in humans include diarrhea, weight loss, intestinal inflammation, fever and dehydration. The clinical incidence of C. difficile infection and disease is about 750,000 cases per year in the US.
(§1) Mice (female C57BL/6, 8-10 weeks old, 16-18 grams each; Harlan Laboratories, Indianapolis, Ind.) were housed in groups of 3 per cage, with 4 cages per treatment group. Mice were exposed to a cocktail of antibiotics in their drinking water for a period of 9 days, starting on day −14, fourteen days before Clostridium difficile challenge on day 0. The antibiotic cocktail consisted of 1% glucose, kanamycin (0.5 mg/ml), gentamicin (0.044 mg/ml), colistin (1062.5 U/ml), metronidazole (0.269 mg/ml), ciprofloxacin (0.156 mg/ml), ampicillin (0.1 mg/ml) and vancomycin (0.056 mg/ml). Three days prior to Clostridium difficile challenge (on Day −3), mice received a single dose of clindamycin (10 mg/kg) in a volume of 0.5 mL distilled water by oral gavage (PO) (see Table 10). All chemicals were purchased from Sigma-Aldrich Corp. (St. Louis, Mo.). On day 0, mice were challenged with Clostridium difficile (strain VPI 10463 (ATCC-43255)) spores at approximately 4.5 log10 spores per mouse, PO, in a dose volume of 0.5 mL distilled water.
Disease-associated phenotypes were recorded for a duration of ten days starting on the day of Clostridium difficile challenge (on day 0) through day 10. The phenotypes, including lethargy, hunched posture and ruffled coat, wet tail/abdomen and hypothermia were scored from 0 to 4: Normal=0; Lethargic=1; Lethargic+Hunched=2; Lethargic+Hunched+Wet tail/abdomen (diarrhea)=3; and Lethargic+Hunched+Wet tail/abdomen+Hypothermic=4. Death (day 0 to day 10 or 11) and weight (day 1 to day 7 and day 10) of the animals was also monitored and recorded.
In these studies, all animals with wet tail/abdomen (diarrhea; clinical score of “3”) progressed to death. Diarrhea is an indication of colonic inflammation and hemorrhage and is a contributing factor to the weight loss seen in rodent models of C. difficile colonization/infection.
A treatment's ability to protect animals from death through day 6 in these experiments indicates disease prevention, e.g., in a human.
In addition, carriage of Clostridium difficile spores, which is indicative of Clostridium difficile gut colonization in both mice and humans, was assessed daily from day 0 to day 6. For spore CFU enumeration, fecal pellets from the mice were suspended in 50% ethanol in phosphate-buffered saline (PBS) and vortexed. […]
Effects of treatments was assessed by comparing the disease-associated phenotypes in glycan-treated, untreated (plain water) and vancomycin-treated groups. […]

gut microbiota = experiment: Mouse model of Clostridium difficile infection, gut microbiota 16S rRNA sequencing; format: in vivo; conditions: Day 6; predicted from 16S rRNA sequencing using PICRUST
Description: as §1
To determine how the gut microbiota composition responds to treatment with glycan therapeutics, 16S rRNA sequencing of fecal pellets on the V4 variable region using standard protocols from the Earth Microbiome Project was performed (www.earthmicrobiome.org/emp-standard-protocols/). […]

Row | SMILES | aqueous solubility [1] | aqueous solubility as Brix [1] | animals died by day 10 ([2]; PO gavage QD days 0 to 4) | animals survived to day 7 ([2]; PO gavage QD days 0 to 4) | clinical score of survivors (0 to 4) ([2]; after treatments were discontinued, through day 10 or 11) | C. difficile spores in the feces ([2]; days 0-6) | clinical signs on day 10 ([2]; mouse, in vivo) | predicted functional potential of the gut microbiome to convert primary bile acids to secondary bile acids (gut microbiota)
1 | O=C[C@H](O)[C@@H](O)[C@H](O)[C@H](O)CO [D-glucose] | 909 mg/mL (≈ 5050 mM) | 48 Brix | – | – | – | – | – | –
2 | CN[C@H](CC(C)C)C(=O)N[C@H]1C(=O)N[C@@H](CC(N)=O)C(=O)N[C@H]2C(=O)N[C@H]3C(=O)N[C@H](C(=O)N[C@H](C(=O)O)c4cc(O)cc(O)c4-c4cc3ccc4O)[C@H](O)c3ccc(c(Cl)c3)Oc3cc2cc(c3O[C@@H]2O[C@H](CO)[C@@H](O)[C@H](O)[C@H]2O[C@H]2C[C@](C)(N)[C@H](O)[C@H](C)O2)Oc2ccc(cc2Cl)[C@H]1O [vancomycin] | – | – | 17% | 100% | above 0 | no detectable spores | exhibited clinical signs | not observed
